From PubChem BioAssay (NCI)
“And” between values parts separate entries of the source, which are not always exact repeats. Equal entries are not always repeated.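 Step 1: Grow cells in 96-well plates. Step 2: Expose to compound for 48 hours at 5 concentrations. Step 3: Interpolate endpoints linearly; if unreached, use highest concentration. The concentration for 50% growth inhibition is given as GI50. TGI denotes the concentration required for complete inhibition of growth.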

What follows are compounds tested on ACHN renal (assay: NCI-60 cell line screen, 48 h).

Q: `CC(C)CCN1c2nc(Nc3cc(F)c(O)c(F)c3)ncc2N(C)C(=O)C1C` (centres undefined) was tested. Which GI50 did it give?
A: 3.21 µM

Q: What about the TGI of the same compound?
A: > 59.5 µM

Q: Which TGI does the source give for `NC(=O)NC1C(c2ccccc2)=C1c1ccccc1` here?
A: 31.2 µM

Q: `O=C(CNc1ccc(Cl)cc1)Nc1ccc(-c2nc3ccccc3s2)cc1` was tested. Which GI50 did it give?
A: 5.81 µM

Q: And the TGI?
A: 12.6 µM

Q: What does the source list for `CCCCCCCCCCCCOC1C(C(COC2OC(C3COC(C)(C)O3)C3OC(C)(C)OC23)NC(=O)Nc2ccc(C(=O)O)cc2)OC2OC(C)(C)OC21` (centres undefined)?
A: GI50: 3.56 µM; TGI: 12.2 µM

Q: Which results are given for `CCN(CC)CCC(CNc1ccnc2cc(Cl)ccc12)c1ccc(OC)cc1` (centres undefined)?
A: GI50: 5.24 µM and 2.77 µM; TGI: 19.1 µM and 9.6 µM

Q: For `COc1ccc(/C=C(/C(=O)N2CCN(c3ccccc3)CC2)c2cc(OC)c(OC)c(OC)c2)cc1O`, which GI50 is on record?
A: 0.457 µM

Q: And the TGI?
A: > 100 µM

Q: What does the source list for `CCn1c(-c2nonc2N)nc2c(C#CC(C)(C)O)nc(OC[C@H](N)c3ccccc3)cc21`?
A: GI50: 2.6 µM; TGI: 5.78 µM

Q: Which results are given for `O=C1/C(=C/c2ccc(Br)cc2)COc2ccc(O)c(O)c21`?
A: GI50: 0.828 µM; TGI: 2.09 µM

Q: For `CCCCCCNC(=O)c1cc(NCc2cc(O)ccc2O)ccc1O`, which GI50 is on record?
A: 4.02 µM

Q: And the TGI?
A: 15.7 µM

Q: Which TGI does the source give for `CC(CCC=O)CCOCc1ccccc1` (centres undefined) here?
A: > 100 µM

Q: For `O=C(Nc1nc2ccc(C(F)(F)F)cc2s1)c1cc(Cl)ccc1O`, which GI50 is on record?
A: 0.894 µM

Q: And the TGI?
A: > 100 µM

Q: Which GI50 does the source give for `COc1ccc(-n2cc(-c3cc(OC)c(OC)c(OC)c3)c(C(=O)C(F)(F)F)c2C)cc1` here?
A: 54.6 µM

Q: What about the TGI of the same compound?
A: > 100 µM

Q: For `COc1cc(C2CC(c3cccc(Br)c3)=NN2C(C)=O)cc(OC)c1OC` (centres undefined), which GI50 is on record?
A: 0.71 µM

Q: What about the TGI of the same compound?
A: > 84.4 µM

Each compound was assayed on BT-549 breast (assay: NCI-60 cell line screen, 48 h).

Q: With `CC(C)CCN1c2nc(Nc3cc(F)c(O)c(F)c3)ncc2N(C)C(=O)C1C` (centres undefined) as the compound, how does the GI50 read?
A: 5.66 µM

Q: And the TGI?
A: > 67.7 µM

Q: Which TGI does the source give for `NC(=O)NC1C(c2ccccc2)=C1c1ccccc1` here?
A: 26.7 µM

Q: What does the source list for `O=C(CNc1ccc(Cl)cc1)Nc1ccc(-c2nc3ccccc3s2)cc1`?
A: GI50: 1.83 µM; TGI: 4.7 µM

Q: What does the source list for `CCCCCCCCCCCCOC1C(C(COC2OC(C3COC(C)(C)O3)C3OC(C)(C)OC23)NC(=O)Nc2ccc(C(=O)O)cc2)OC2OC(C)(C)OC21` (centres undefined)?
A: GI50: 1.79 µM; TGI: 4.59 µM

Q: With `CCN(CC)CCC(CNc1ccnc2cc(Cl)ccc12)c1ccc(OC)cc1` (centres undefined) as the compound, how does the GI50 read?
A: 8.14 µM and 8.47 µM

Q: And the TGI?
A: 23.4 µM and 22.6 µM

Q: What does the source list for `COc1ccc(/C=C(/C(=O)N2CCN(c3ccccc3)CC2)c2cc(OC)c(OC)c(OC)c2)cc1O`?
A: GI50: 0.391 µM; TGI: 98.5 µM

Q: Which results are given for `CCn1c(-c2nonc2N)nc2c(C#CC(C)(C)O)nc(OC[C@H](N)c3ccccc3)cc21`?
A: GI50: 3.39 µM; TGI: 6.74 µM

Q: Which results are given for `O=C1/C(=C/c2ccc(Br)cc2)COc2ccc(O)c(O)c21`?
A: GI50: 1.2 µM; TGI: 3 µM

Q: With `CCCCCCNC(=O)c1cc(NCc2cc(O)ccc2O)ccc1O` as the compound, how does the GI50 read?
A: 1.14 µM

Q: And the TGI?
A: 4.27 µM

Q: Which TGI does the source give for `CC(CCC=O)CCOCc1ccccc1` (centres undefined) here?
A: > 100 µM

Q: Which GI50 does the source give for `O=C(Nc1nc2ccc(C(F)(F)F)cc2s1)c1cc(Cl)ccc1O` here?
A: 0.89 µM

Q: And the TGI?
A: 7.77 µM

Q: How did the GI50 turn out when `COc1ccc(-n2cc(-c3cc(OC)c(OC)c(OC)c3)c(C(=O)C(F)(F)F)c2C)cc1` was run?
A: 56.2 µM

Q: What about the TGI of the same compound?
A: > 100 µM

Q: What does the source list for `COc1cc(C2CC(c3cccc(Br)c3)=NN2C(C)=O)cc(OC)c1OC` (centres undefined)?
A: GI50: 10.2 µM; TGI: 40.7 µM

Each compound was assayed on HCC-2998 colon (assay: NCI-60 cell line screen, 48 h).

Q: With `CC(C)CCN1c2nc(Nc3cc(F)c(O)c(F)c3)ncc2N(C)C(=O)C1C` (centres undefined) as the compound, how does the GI50 read?
A: 3.54 µM

Q: And the TGI?
A: 17.1 µM

Q: With `NC(=O)NC1C(c2ccccc2)=C1c1ccccc1` as the compound, how does the TGI read?
A: 35.8 µM

Q: What does the source list for `O=C(CNc1ccc(Cl)cc1)Nc1ccc(-c2nc3ccccc3s2)cc1`?
A: GI50: 2.12 µM; TGI: 4.24 µM

Q: How did the GI50 turn out when `CCCCCCCCCCCCOC1C(C(COC2OC(C3COC(C)(C)O3)C3OC(C)(C)OC23)NC(=O)Nc2ccc(C(=O)O)cc2)OC2OC(C)(C)OC21` (centres undefined) was run?
A: 2.05 µM

Q: And the TGI?
A: 3.82 µM

Q: What does the source list for `CCN(CC)CCC(CNc1ccnc2cc(Cl)ccc12)c1ccc(OC)cc1` (centres undefined)?
A: GI50: 3.5 µM and 2.44 µM; TGI: 16.2 µM and 6.32 µM

Q: `COc1ccc(/C=C(/C(=O)N2CCN(c3ccccc3)CC2)c2cc(OC)c(OC)c(OC)c2)cc1O` was tested. Which GI50 did it give?
A: 0.499 µM

Q: And the TGI?
A: > 100 µM
